Data on one compound can be found in ChEMBL document CHEMBL4673395, “Discovery of PIPE-359, a Brain-Penetrant, Selective M Receptor Antagonist with Robust Efficacy in Murine MOG-EAE” (ACS Med Chem Lett, 2021).

A short description of data set [1]: In vivo receptor occupancy at muscarinic M1 receptor in myelin oligodendrocyte glycoprotein (MOG)-induced experimental autoimmune encephalitis C57BL/6 mouse model assessed as decrease in occupancy at 30 mg/kg, po measured after 24 hrs. The format is functional.
Data set [2] addresses Voltage-gated inwardly rectifying potassium channel KCNH2 (Homo sapiens, UniProt Q12809). In words: Inhibition of human ERG expressed in HEK293 cells at 3 uM by patch clamp assay. Type of data set: cell-based. The conditions noted are these: hek293, 3 µM.
Data set [3] can be described thus: Brain to plasma permeability coefficient, Kp of the compound in rat at 10 mg/kg, po measured after 2 hrs by LC-MS/MS. Type of data set: ADME, organism-based. Particulars: read-out: K(p,uu,brain).
Data set [4] in a line: Fraction unbound in rat plasma at 10 mg/kg, po measured by LC-MS/MS. Type of data set: ADME, organism-based.
The nature of data set [5]: Plasma concentration in rat at 10 mg/kg, po measured after 2 hrs by LC-MS/MS. Type of data set: ADME, organism-based.
The nature of data set [6]: Metabolic stability in rat liver microsomes assessed as parent compound remaining at 1 uM measured at 15 mins by LC-MS/MS analysis. Type of data set: ADME, Microsome. The conditions noted are these: read-out: Stabilty. On the technique in general: Liver microsomes are a subcellular fraction often used to study metabolism.
Data set [7] has as its target T1, Muscarinic acetylcholine receptor M1 (Homo sapiens, UniProt P11229).
T1 sequence (P11229 whole entry): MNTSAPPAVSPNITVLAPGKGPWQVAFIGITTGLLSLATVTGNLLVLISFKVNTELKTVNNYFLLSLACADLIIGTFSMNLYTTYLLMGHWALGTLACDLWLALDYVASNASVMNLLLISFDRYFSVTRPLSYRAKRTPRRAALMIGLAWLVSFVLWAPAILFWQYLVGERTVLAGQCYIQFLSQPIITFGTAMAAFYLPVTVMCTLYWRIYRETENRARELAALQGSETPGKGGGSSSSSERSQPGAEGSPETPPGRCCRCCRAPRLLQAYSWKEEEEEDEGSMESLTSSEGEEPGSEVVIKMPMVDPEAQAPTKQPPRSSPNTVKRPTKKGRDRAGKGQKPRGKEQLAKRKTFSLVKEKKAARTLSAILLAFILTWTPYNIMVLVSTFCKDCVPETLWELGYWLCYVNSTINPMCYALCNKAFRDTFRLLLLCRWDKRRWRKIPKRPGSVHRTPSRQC
In words: Antagonist activity at human recombinant muscarinic receptor M1 expressed in CHO-K1 cells assessed as EC80 acetylcholine-induced calcium flux incubated for 30 mins. The format is functional, cell-based. Particulars: read-out: IC50. (In general: Calcium flux is commonly read through the fluorescence of an indicator in the cells.)

Data set [8] can be described thus: Fraction unbound rat plasma at 10 mg/kg, po measured after 2 hrs by LC-MS/MS. Type of data set: ADME, organism-based. Particulars: in vivo.

Each structure is given as a SMILES string.

Sequence of Voltage-gated inwardly rectifying potassium channel KCNH2 (Q12809 whole entry): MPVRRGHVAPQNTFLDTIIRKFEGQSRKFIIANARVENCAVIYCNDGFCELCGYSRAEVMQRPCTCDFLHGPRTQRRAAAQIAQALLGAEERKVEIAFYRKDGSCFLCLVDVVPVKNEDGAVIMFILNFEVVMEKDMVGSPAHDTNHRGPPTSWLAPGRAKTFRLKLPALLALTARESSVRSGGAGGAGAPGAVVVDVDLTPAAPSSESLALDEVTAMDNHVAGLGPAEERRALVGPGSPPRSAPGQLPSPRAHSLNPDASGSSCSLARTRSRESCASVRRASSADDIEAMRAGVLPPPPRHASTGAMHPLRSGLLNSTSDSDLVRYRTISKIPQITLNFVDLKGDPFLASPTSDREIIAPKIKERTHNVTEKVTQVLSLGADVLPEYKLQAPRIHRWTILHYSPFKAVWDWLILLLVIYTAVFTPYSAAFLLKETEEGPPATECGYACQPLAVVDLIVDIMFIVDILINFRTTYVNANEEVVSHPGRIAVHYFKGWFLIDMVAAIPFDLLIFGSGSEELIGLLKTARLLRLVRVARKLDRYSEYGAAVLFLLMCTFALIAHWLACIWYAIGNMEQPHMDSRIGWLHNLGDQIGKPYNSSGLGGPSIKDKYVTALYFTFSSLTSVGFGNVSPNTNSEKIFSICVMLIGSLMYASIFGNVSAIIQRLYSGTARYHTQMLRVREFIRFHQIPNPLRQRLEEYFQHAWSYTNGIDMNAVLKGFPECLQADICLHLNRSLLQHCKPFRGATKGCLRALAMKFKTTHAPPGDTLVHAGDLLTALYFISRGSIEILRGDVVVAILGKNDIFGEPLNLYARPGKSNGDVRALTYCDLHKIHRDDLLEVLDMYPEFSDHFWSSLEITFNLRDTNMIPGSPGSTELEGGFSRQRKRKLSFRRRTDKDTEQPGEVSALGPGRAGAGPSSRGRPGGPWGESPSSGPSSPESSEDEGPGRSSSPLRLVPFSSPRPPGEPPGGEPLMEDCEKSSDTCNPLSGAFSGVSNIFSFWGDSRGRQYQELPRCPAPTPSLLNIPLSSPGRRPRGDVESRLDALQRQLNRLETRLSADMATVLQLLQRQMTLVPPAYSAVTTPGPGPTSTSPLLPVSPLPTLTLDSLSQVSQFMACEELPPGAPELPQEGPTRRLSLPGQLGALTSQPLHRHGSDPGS

By fraction unbound is commonly meant the share of the substance not bound to proteins or other matrix. Broadly, the IC50 is the concentration that inhibits the measured activity by half. Consider `N#Cc1ccc(N2CCN(C(=O)CCS(=O)(=O)c3cccc4ncsc34)CC2)nc1`, for which the Occ in data set [1] turned out to be 50%. This compound displayed an inhibition (INH) in data set [2] of 69%. In addition, the Kp uu at 2 h in data set [3] was 0.17. Further, the fraction unbound in data set [4] came to 0.15. The compound further gave a concentration at 2 h in data set [5] of 89 nM. Moreover, the remaining at 0.25 h, 1 µM in data set [6] is 59%. For the same compound, the IC50 in data set [7] turned out to be 5.8 nM. The “Cp(f)” value in data set [8] is on record as 13 nM.
